pKi: −log10 of the molar value.
Biological target: T1, glucocorticoid receptor (Homo sapiens, UniProt P04150)
T1 construct: endogenous in cells; host or cells: HeLa (ATCC) cell lysate supernatant
T1 sequence (P04150 1-777): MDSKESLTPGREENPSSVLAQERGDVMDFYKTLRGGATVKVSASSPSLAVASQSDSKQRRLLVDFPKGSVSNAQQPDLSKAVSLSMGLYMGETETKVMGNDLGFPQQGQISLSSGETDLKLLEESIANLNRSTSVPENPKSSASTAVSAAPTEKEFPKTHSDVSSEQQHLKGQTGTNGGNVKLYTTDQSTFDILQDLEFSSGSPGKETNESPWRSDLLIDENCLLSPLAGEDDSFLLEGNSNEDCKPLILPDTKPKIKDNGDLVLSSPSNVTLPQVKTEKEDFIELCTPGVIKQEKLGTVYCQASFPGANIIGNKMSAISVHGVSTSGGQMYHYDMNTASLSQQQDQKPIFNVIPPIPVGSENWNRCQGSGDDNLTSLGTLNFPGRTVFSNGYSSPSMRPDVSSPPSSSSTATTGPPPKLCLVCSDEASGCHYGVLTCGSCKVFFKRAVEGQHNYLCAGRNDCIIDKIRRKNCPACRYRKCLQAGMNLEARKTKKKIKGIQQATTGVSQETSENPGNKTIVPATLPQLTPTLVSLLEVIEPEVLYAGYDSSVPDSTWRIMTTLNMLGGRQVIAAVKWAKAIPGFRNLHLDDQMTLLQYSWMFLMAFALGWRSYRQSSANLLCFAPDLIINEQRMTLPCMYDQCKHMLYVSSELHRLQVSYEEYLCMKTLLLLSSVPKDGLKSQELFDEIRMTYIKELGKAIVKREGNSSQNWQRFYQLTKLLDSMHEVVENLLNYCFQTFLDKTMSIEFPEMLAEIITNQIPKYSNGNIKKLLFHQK
Experiment: Ligand binding assay (GRBind), 3H-dexamethasone displacement in HeLa cell lysate
Details: 3H-DEX tracer
Experimental: Binding Buffer: TEGM (10 mM Tris-HCl, 1 mM EDTA, 10% glycerol, 1 mM betamecaptoethanol, 10 mM Sodium Molybdate, pH 7.2)
50% HAP Slurry: Calbiochem Hydroxylapatite, Fast Flow, in 10 mM Tris, pH 8.0 and 1 mM EDTA.
Wash Buffer: 40 mM Tris, pH7.5, 100 mM KCl, 1 mM EDTA and 1 mM EGTA. 95% EtOH Dexmethasone-methyl-3H, (DEXA*); (Amersham cat#TRK645) Dexamethasone(DEX) (Sigma, cat#01756):
Hydroxylapatite Fast Flow; Calbiochem Cat#391947
25 Molybdate=Molybdic Acid (Sigma, M1651)
5 Cells (Hall R. E., et al., European Journal of Cancer, 30A: 484-490 (1994)) HeLa (ATCC) cultured in RPMI 1640 (Gibed 11835-055) containing 20 mM Hepes, 4 mM L-glu, 10 ug/ml of human insulin (Sigma, 1-0259), 10% FBS and 20 uglml of Gentamicin (Gibco#15710072) are rinsed twice in PBS. Phenol red-free Trypsin-EDTA is diluted in the same PBS 1:10. The cell layers are rinsed with IX Trypsin, extra Trypsin is poured out, and the cell layers are incubated at 37° C. for 2 min. The flask is tapped and checked for signs of cell detachment. Once the cells begin to slide off the flask, the complete media is added. The cells are counted at this point, then diluted to the appropriate concentration and split into flasks or dishes for further culturing (Usually 1:3 to 1:6 dilution).
Preparation of HeLa Cell Lysate
When the cells are 70 to 85% confluent, they are detached as described above, and collected by centrifuging at 1000 g for 10 min at 4° C. The cell pellet is washed twice with TEGM (10 mM Tris-HCl, 1 mM EDTA, 10% glycerol, 1 mM beta-mercaptoethanol, 10 mM Sodium Molybdate, pH 7.2). After the final wash, the cells are resuspended in TEGM at a concentration of 10^7 cells/mL. The cell suspension is snap frozen in liquid nitrogen or ethanol/dry ice bath and transferred to −80° C. freezer on dry ice. Before setting up the binding assay, the frozen samples are left on ice-water to just thaw. Then the samples are centrifuged at 12,500 g to 20,000 g for 30 min at 4° C. The supernatant is used to set-up assay right away. If using 50 μL of supernatant, the test compound can be prepared in 50 μL of the TEGM buffer.
Procedure for Multiple Compound Screening
1×TEGM buffer is prepared, and the isotope-containing assay mixture is prepared in the following order: EtOH (2% final concentration in reaction), 3H-DEX (Amersham Biosciences) and 1×TEGM. [e.g. For 100 samples, 200 JlL (100×2) of EtOH+4.25 JlL of 1:10 ^3H-Dex stock+2300 μL (100×23) 1×TEGM]. The compound is serially diluted, e.g., if starting final conc. is 1 μM, and the compound is in 25 μL of solution, for duplicate samples, 75 μL of 4×1 μM solution is made and 3 μL of 100). 1M is added to 72 μL of buffer, and 1:5 serial dilution.
25 μL of ^3H-DEX (6 nM) trace and 25 μL, compound solution are first mixed together, followed by addition of 50 μL receptor solution. The reaction is gently mixed, spun briefly at about 200 rpm and incubated at 4° C. overnight. 100 μL of 50% HAP slurry is prepared and added to the incubated reaction which is then vortexed and incubated on ice for 5 to 10 min. The reaction mixture is vortexed twice more to resuspend HAP while incubating reaction. The samples in 96-well format are then washed in wash buffer using the FilterMate™ Universal Harvester plate washer (Packard). The washing process transfers HAP pellet containing ligand-bound expressed receptor to Unifilter-96 GFIB filter plate (Packard). The HAP pellet on the filter plate is incubated with […] of MICROSCINT (Packard) scintillant for 30 min before being counted on the TopCount microscintillation counter (Packard). IC50s are calculated using DEX as a reference.

| pKi | SMILES |
| --- | --- |
| 9.00 | N#Cc1ccccc1CC[C@]1(O)CCC2=Cc3c(cnn3-c3ccccc3)C[C@@]21C1CC1 [Example 27, 2-{2-[(4aR,5R)-4a-Cyclopropyl-5-hydroxy-1-phenyl-1,4,4a,5,6,7-hexahydrocyclopenta[f]indazol-5-yl]ethyl}benzonitrile] |
| 8.87 | N#Cc1ccccc1CC[C@]1(O)CCC2=Cc3c(cnn3-c3cccnc3)C[C@@]21C1CC1 [Example 30, 2-{2-[(4aR,5R)-4a-Cyclopropyl-5-hydroxy-1-(pyridin-3-yl)-1,4,4a,5,6,7-hexahydrocyclopenta[f]indazol-5-yl]ethyl}benzonitrile] |
| 7.94 | CC[C@]12Cc3cnn(-c4ccc(F)cc4)c3C=C1CC[C@@]2(O)CCc1nccc(OC)c1CC(N)=O [Example 64, 2-(2-{2-[(4aS,5R)-4a-Ethyl-1-(4-fluorophenyl)-5-hydroxy-1,4,4a,5,6,7-hexahydrocyclopenta[f]indazol-5-yl]ethyl}-4-methoxypyridin-3-yl)acetamide] |
| 8.53 | CC[C@]12Cc3cnn(-c4ccccc4)c3C=C1CC[C@@]2(O)CC(O)c1cc(C#N)ccn1 (stereo partly drawn) [Example 75, 2-{2-[(4aS,5R)-4a-Ethyl-5-hydroxy-1-phenyl-1,4,4a,5,6,7-hexahydrocyclopenta[f]indazol-5-yl]-1-hydroxyethyl}pyridine-4-carbonitrile] |
| 8.77 | O=S(=O)(c1ccccc1CC[C@]1(O)CCC2=Cc3c(cnn3-c3ccc(F)cc3)C[C@@]21C1CC1)C1CC1 [Example 63, (4aR,5R)-4a-Cyclopropyl-5-{2-[2-(cyclopropylsulfonyl)phenyl]ethyl}-1-(4-fluorophenyl)-1,4,4a,5,6,7-hexahydrocyclopenta[f]indazol-5-ol] |
| 8.87 | CCS(=O)(=O)c1ccccc1CC[C@]1(O)CCC2=Cc3c(cnn3-c3ccc(F)cc3)C[C@@]21C1CC1 [Example 59, (4aR,5R)-4a-Cyclopropyl-5-{2-[2-(ethylsulfonyl)phenyl]ethyl}-1-(4-fluorophenyl)-1,4,4a,5,6,7-hexahydrocyclopenta[f]indazol-5-ol] |
| 8.84 | NC(=O)CNC(=O)c1ccccc1CC[C@]1(O)CCC2=Cc3c(cnn3-c3ccc(F)cc3)C[C@@]21C1CC1 [Example 47, N-(2-Amino-2-oxoethyl)-2-{2-[(4aR,5R)-4a-cyclopropyl-1-(4-fluorophenyl)-5-hydroxy-1,4,4a,5,6,7-hexahydrocyclopenta[f]indazol-5-yl]ethyl}benzamide] |
| 8.79 | NC(=O)Cc1ccccc1CC[C@]1(O)CCC2=Cc3c(cnn3-c3ccc(F)cc3)C[C@@]21C1CC1 [Example 56, 2-(2-{2-[(4aR,5S)-4a-Cyclopropyl-1-(4-fluorophenyl)-5-hydroxy-1,4,4a,5,6,7-hexahydrocyclopenta[f]indazol-5-yl]ethyl}phenyl)acetamide] |
| 8.26 | CC[C@]12Cc3cnn(-c4ccccc4)c3C=C1CC[C@@]2(O)CC(O)c1ccccn1 (single isomer, unassigned) [Example 67b] |
| 8.06 | CC[C@]12Cc3cnn(-c4cccnc4)c3C=C1CC[C@@]2(O)CCc1cccc(F)c1C(N)=O [Example 14, 2-{2-[(4aS,5R)-4a-Ethyl-5-hydroxy-1-(pyridin-3-yl)-1,4,4a,5,6,7-hexahydrocyclopenta[f]indazol-5-yl]ethyl}-6-fluorobenzamide] |
| 8.22 | CC[C@]12Cc3cnn(-c4ccc(F)cc4)c3C=C1CC[C@@]2(O)CCc1ncc(F)cc1C(N)=O [Example 53, 2-{2-[(4aS,5R)-4a-Ethyl-1-(4-fluorophenyl)-5-hydroxy-1,4,4a,5,6,7-hexahydrocyclopenta[f]indazol-5-yl]ethyl}-5-fluoropyridine-3-carboxamide] |
| 8.84 | CC[C@]12Cc3cnn(-c4ccc(F)cc4)c3C=C1CC[C@@]2(O)CCc1ncccc1F [Example 17, (4aS,5R)-4a-Ethyl-1-(4-fluorophenyl)-5-[2-(3-fluoropyridin-2-yl)ethyl]-1,4,4a,5,6,7-hexahydrocyclopenta[f]indazol-5-ol] |
| 8.70 | CC[C@]12Cc3cnn(-c4cccnc4)c3C=C1CC[C@@]2(O)CCc1ccccc1C#N [Example 5, 2-{2-[(4aS,5R)-4a-Ethyl-5-hydroxy-1-(pyridin-3-yl)-1,4,4a,5,6,7-hexahydrocyclopenta[f]indazol-5-yl]ethyl}benzonitrile] |
| 7.95 | CC[C@]12Cc3cnn(-c4ccccc4)c3C=C1CC[C@@]2(O)CC(O)c1ccccn1 (single isomer, unassigned) [Example 67a] |
| 8.36 | CC[C@]12Cc3cnn(-c4ccc(F)cc4)c3C=C1CC[C@@]2(O)CC(O)c1ncccc1F (stereo partly drawn) [Example 77, (4aS,5R)-4a-Ethyl-1-(4-fluorophenyl)-5-[2-(3-fluoropyridin-2-yl)-2-hydroxyethyl]-1,4,4a,5,6,7-hexahydrocyclopenta[f]indazol-5-ol] |
| 8.65 | CC[C@]12Cc3cnn(-c4ccc(F)cc4)c3C=C1CC[C@@]2(O)CCc1cc(C(F)(F)F)ccn1 [Example 34, (4aS,5R)-4a-Ethyl-1-(4-fluorophenyl)-5-{2-[4-(trifluoromethyl)pyridin-2-yl]ethyl}-1,4,4a,5,6,7-hexahydrocyclopenta[f]indazol-5-ol] |
| 8.53 | OC(C[C@]1(O)CCC2=Cc3c(cnn3-c3ccc(F)cc3)C[C@@]21C1CC1)c1ccccn1 (stereo partly drawn) [Example 78, (4aR,5R)-4a-Cyclopropyl-1-(4-fluorophenyl)-5-[2-hydroxy-2-(pyridin-2-yl)ethyl]-1,4,4a,5,6,7-hexahydrocyclopenta[f]indazol-5-ol] |
| 8.63 | CC[C@]12Cc3cnn(-c4ccc(F)cc4)c3C=C1CC[C@@]2(O)CCc1cc(C)ccn1 [Example 33, (4aS,5R)-4a-Ethyl-1-(4-fluorophenyl)-5-[2-(4-methylpyridin-2-yl)ethyl]-1,4,4a,5,6,7-hexahydrocyclopenta[f]indazol-5-ol] |
| 8.55 | OC(C[C@]1(O)CCC2=Cc3c(cnn3-c3ccc(F)cc3)C[C@@]21C1CC1)c1ccc(F)cn1 (single isomer, unassigned) [Example 79a] |
| 8.70 | N#Cc1ccnc(CC[C@]2(O)CCC3=Cc4c(cnn4-c4ccc(F)cc4)C[C@@]32C2CC2)c1 [Example 35, 2-{2-[(4aR,5R)-4a-Cyclopropyl-1-(4-fluorophenyl)-5-hydroxy-1,4,4a,5,6,7-hexahydrocyclopenta[f]indazol-5-yl]ethyl}pyridine-4-carbonitrile] |
